Laboratory results: patent US10889812B2, “Short non-coding protein regulatory RNAs (sprRNAs) and methods of use” (University of Maryland, Baltimore, priority 2014, dated 2021)
Entries after “also recorded” stand apart in the source; their conditions may differ. m = 2'-O-methyl; r = 2'-OH (RNA)

Columns and labels:
[1] = system: p-ERM; experiment: IP with anti-p-ERM antibody followed by RT-PCR in transfected H1792 cells; assay type: binding, human; settings: H1792 cells transfected with the oligonucleotide
From the text: We next wanted to determine the site critical for piR-L-163's binding toP-ERM. We first analyzed the piR-L-163 sequence and identified a candidate motif “UUNNUUUNNUU” (SEQ ID NO:495) with potentially critical for the binding (FIG. 5a). We then generated 5 mutant forms of piR-L-163 named as M1-M5 (FIG. 5b and Table 3) to test their potential impact on the p-ERM binding. For this experiment, we used H1792 cells because these cells expressed extremely low level of endogenous piR-L-163 but considerable amount of p-ERM (FIG. 5c and FIG. 11a). H1792 cells were transfected with Scr (control), Ant-163, piR-L-163 (WT), or Mutant 1 (M1) to Mutant 5 (M5) RNA oligonucletides, respectively. An anti-p-ERM antibody was used for IP followed by RT-PCR using primers specific for Scr, Ant-163, piR-L-163, or M1-M5 (Table 6) to detect the corresponding oligonucleotides.
To amplify sncRNAs, we added an adaptor to the 3′ end, a process including adaptor ligation, RT and PCR (de Vanssay, A. et al. Paramutation in Drosophila linked to emergence of a piRNA-producing locus. Nature 490, 112-115 (2012); Li, Z. et al. Characterization of viral and human RNAs smaller than canonical MicroRNAs. J Virol. 83, 12751-12758 (2009)). For adaptor ligation, the adaptor /5′rapp/CTGTAGGCACCATCAAT/3′ddc/ (SEQ ID NO:499) with both 5′ and 3′ modification was used. Briefly, mixed 1 μl (10 pmol, ˜55 ng) of RNA 3′ adaptor and 4.4 μl (˜100 ng) of purified sncRNAs in a 1.5 ml EP tube; Incubated at 72° C. for 2 min, then placed on ice immediately and kept it on ice for at least 1 min; Added the following reagents (New England Biolabs) to the above tube: 0.8 μl 10×RNA ligase buffer, 1 μl RNase inhibitor, and 1 μl single strand RNA ligase; Mixed it well and incubated at 37° C. for 1 hr, then terminated the reaction at 65° C. for 15 min. For RT, SuperScript™ III First-Strand Synthesis System (Invitrogen) was used according to the manufacturer's instructions with gene specific primer (5′-[…]-3′) (SEQ ID NO:500). For PCR, a common reverse primer (5′-[…]-3′) (SEQ ID NO:501) and primers specific for individual sncRNAs (Table 6). Amplification conditions were denaturation at 95° C. for 30 s (5 min for the first cycle), annealing at 60° C. for 20 s and extension at 72° C. for 20 s (2 min for the last cycle) for 25 cycles.
For IP using anti-human Moesin or p-ERM antibodies, anti-Moesin (Clone Q480, Catalog No. 3150, Cell Signaling) or anti-p-ERM (Clone 41A3, Catalog No. 3149, Cell Signaling) antibodies were used and a rabbit IgG was used as a control. Briefly, Saturated protein G agarose beads (Sigma-Aldrich) with rabbit IgG, anti-Moesin or anti-p-ERM antibodies, respectively (1 μg antibody was used for 4 μl agarose beads) at 4° C. for 3 hrs, centrifuged at 2,200×g for 5 min, and discarded the upper aqueous phase; (2) Protein extracts prepared from cells using lysis buffer (20 mM Tris-cl, pH7.6, 150 mM NaCl, 20 mM KCl, 1.5 mM MgCl2, 0.5% NP-40, 0.5 mM PMSF) were pre-cleared using protein G agarose at 4° C. for 2 hrs, centrifuged at 2,200×g for 5 min, and transferred the upper aqueous phase to above tubes with agarose beads saturated with antibodies, respectively; Kept the tubes rotating overnight at 4° C., centrifuged at 2,200×g for 5 min, and washed the beads with lysis buffer twice; Extracted total RNAs from beads using Trizol Reagent (Life Technologies); Amplification of piR-L-163 or its mutants was performed according to the steps described in the “RT-PCR” section.

[2] = system: H1792 cells; experiment: Trans-well invasion assay; assay type: cell-based, human; settings: H1792, vs control RNA oligonucleotides
From the text: We then tested the potential impact of piR-L-163 in cell migration and invasion, two of the properties involving ERM's biological functions (Fehon, R. G., Mclatchey, A. I. & Bretscher, A. Organizing the cell cortex: the role of ERM proteins. Nat Rev Mol Cell Biol. 11, 276-287 (2010); Hunter, K. W. Ezrin, a key component in tumor metastasis. Trends Mol. Med. 10, 201-204 (2004); Luo, Y. et al. Recognition of CD146 as an ERM-binding protein offers novel mechanisms for melanoma cell migration. Oncogene 31, 306-321 (2013); Clucas, J. & Valderrama, F. ERM proteins in cancer progression. J Cell Sci. 128, 1253 (2015)).
Briefly, 24 hrs after transfection, 6×10^4 cells were placed in the upper chamber of Matrigel Invasion Chambers (BD Bioscience) with growth factor-free Keratinocyte-SFM and the bottom chamber were exposed to Keratinocyte-SFM medium supplemented with L-Glutamine, prequalified human recombinant EGF 1-53 and BPE. Invading cells were evaluated after 12 hrs according to the manufacturer's instruction. The numbers of invading cells were adjusted 15% downwards for Ant-163 treated cells or 15% upwards for piR-L-163 treated cells to compensate the differences for the proliferation rates.

[3] = system: MDM2; experiment: Western blot of MDM2 cleavage and phosphorylation in SCC cells; assay type: cell-based, human; settings: SCC cells transfected, vs Scr RNA
From the text: Primary antibodies used were: anti-Moesin (1:1,000, Clone Q480, Catalog No. 3150, Cell Signaling), anti-p-ERM (Clone 41A3, Catalog No. 3149, Cell Signaling), anti-Moesin (Clone 38/Moesin, Catalog No. 610401, BD Transduction Laboratories), anti-p-Moesin (Thr558, Catalog No. 12895, Sanra Cruz), anti-β-actin (1:5,000, Catalog No. A228, Sigma-Aldrich), anti-EBP50 (1:100, Clone 6/EBP50, Catalog No. 61160, BD Transduction Laboratories), anti-F-actin (1:100, Clone NH3, Catalog No. MA1-80729, Thermor Fisher), anti-p-Wee 1 (Se53, 1:1000, Catalog No. sc-130223, Sanra Cruz), anti-Wee 1 (C-20, 1:1000, Catalog No. sc-325, Sanra Cruz), anti-p-Cdc2 (Tyr15, 1:1000, Catalog No. 9111, Cell Signaling), anti-p-Cdk (Thr14/Tyr15-R, 1:1000, Catalog No. sc-28435-R, Sanra Cruz), anti-Cdc2 p34 (H-297, 1:1000, Catalog No. sc-747, Sanra Cruz), anti-p-Cdc25C (Ser198, 1:1000, Catalog No. 9529, Cell Signaling), anti-CDK2 (78B2, 1:1000, Catalog No. 2546, Cell Signaling), anti-p-Histone H2AX (Ser139, 20E3, :1000, Catalog No. 9718, Cell Signaling), and anti-GFP (N-terminal, 1:4000, Catalog No. G1544, Sigma). Secondary antibodies used were: Goat anti-Mouse (1:2,500, Catalog No. 31160, Pierce), and Goat anti-Rabbit (1:2,500, Catalog No. 31460, Pierce). Cells were lysed in RIPA buffer (Sigma) on ice after washed in PBS twice, centrifuge at […] for 10 min at 4° C. Protein in supernatant was qualified using BCA™ protein assay kit (Thermo Scitific) and denatured in SDS loading buffer in boiling water, run 10% SDS-PAGE gel and transferred to nitrocellulose membrane (Thermo Scitific). […]
Next, we wanted to explore potential mechanism of piR-L-138-mediated apoptosis inhibition in CDDP treated lung SCC cells. We first analyzed cleaved PARP, a protein marker indicative of apoptosis, and found it was increased in the SCC cells pre-treated with Ant-138 compared with Scr pre-treated cells (FIG. 15d). As both of the SCC cell lines harbor p53 mutations, we analyzed mouse double minute 2 homolog (MDM2) which has been implicated in apoptosis including p53-independent pathway (Bohlman S, Manfredi J J. p53-independent effects of Mdm2. Subcell Biochem. 85,235-46 (2014); Bouska A, Eischen C M. Mdm2 affects genome stability independent of p53. Cancer Res. 69, 1697-701 (2009); Zhang, Z., Li, M., Wang, H., Agrawal, S., and Zhang, R. Antisense therapy targeting MDM2 oncogene in prostate cancer: Effects on proliferation, apoptosis, multiple gene expression, and chemotherapy. Proc. Natl. Acad. Sci. 100, 11636-11641 (2003); Zhang Z, Wang H, Li M, Agrawal S, Chen X, Zhang R. MDM2 Is a Negative Regulator of p21WAF1/CIP1, Independent of p53. […]

Substance | oligonucleotide detected by RT-PCR in anti-p-ERM IP products (binding to p-ERM) [1] | further results
M1: mutant form of piR-L-163, RNA oligonucleotide, SEQ ID NO:519 (AUAUCAUGAUGACACGACGACACUCUGACC; (30)..(30) 2′-O-methylation) | no RT-PCR band could be detected | invasion capability [2]: no impact
M2: mutant form of piR-L-163, RNA oligonucleotide, SEQ ID NO:520 (AUAUCAUGAUGUUACGACGAUUCUCUGACC; sugars from the 5' end r29 m1, backbone not given here; further chemistry not fully specified) | no RT-PCR band could be detected | –
M3: mutant form of piR-L-163, RNA oligonucleotide, SEQ ID NO:521 (AUAUCAUGAUGUUACGCUGAUUCUCUGACC; sugars from the 5' end r29 m1, backbone not given here; further chemistry not fully specified) | RT-PCR bands with expected sizes were detected; also recorded: substantially weaker | –
M4: mutant form of piR-L-163, RNA oligonucleotide, SEQ ID NO:522 (AUAUCAUGAUGUUACUCUGAUUCUCUGACC; sugars from the 5' end r29 m1, backbone not given here; further chemistry not fully specified) | RT-PCR bands with expected sizes were detected | –
M5: mutant form of piR-L-163, RNA oligonucleotide, SEQ ID NO:523 (AUUUCAUGAUGUUACUUUGAUUCUCUGACC; sugars from the 5' end r29 m1, backbone not given here; further chemistry not fully specified) | RT-PCR bands with expected sizes were detected | –
Scr: scrambled DNA or RNA oligonucleotides used as control (SEQ ID NO:506 DNA, SEQ ID NO:524 RNA) (DNA GATACCAGGGACATACGCTTGATCCTAGC; chain GAUACCAAGGACAUACGCUUAUGCAUGCUA; DNA: DNA, backbone and methylation of C not given here; chain: chemistry not given here) [reference compound] | no RT-PCR band could be detected | –
piR-L-138: sprRNA, SEQ ID NO:268; piRNA-L down-regulated in NSCLC cells, up-regulated upon cisplatin (ACUUUAGCUCUAGAAUUACUCUGAGACCU; expressed or natural sequence; listed as Homo sapiens) | – | MDM2 cleavage [3]: enhanced MDM2 cleavage; Serine-166 phosphorylation in cleaved MDM2 [3]: reduced Serine-166 phosphorylation in cleaved MDM2
